Assay results published in PubChem BioAssay (NCI).
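Assay format: 96-well plates, 48-hour exposure. TGI denotes the concentration required for complete inhibition of growth.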

Experiments:
Experiment in all cases: DTP human tumour cell line panel, 48 h
TK-10 renal = test system: TK-10 renal
OVCAR-4 ovarian = test system: OVCAR-4 ovarian
NCI/ADR-RES ovarian = test system: NCI/ADR-RES ovarian
EKVX NSCLC = test system: EKVX NSCLC
NCI-H23 lung = test system: NCI-H23 lung
T-47D breast = test system: T-47D breast
HT29 colon = test system: HT29 colon
UACC-62 melanoma = test system: UACC-62 melanoma
HOP-92 NSCLC = test system: HOP-92 NSCLC
786-0 renal = test system: 786-0 renal
HCC-2998 colon = test system: HCC-2998 colon
SK-MEL-28 melanoma = test system: SK-MEL-28 melanoma
NCI-H522 lung = test system: NCI-H522 lung
OVCAR-8 ovarian = test system: OVCAR-8 ovarian
MDA-MB-231 breast = test system: MDA-MB-231 breast
NCI-H226 lung = test system: NCI-H226 lung
A549 NSCLC = test system: A549 NSCLC
UO-31 renal = test system: UO-31 renal
OVCAR-5 ovarian = test system: OVCAR-5 ovarian
IGROV1 ovarian = test system: IGROV1 ovarian
ACHN renal = test system: ACHN renal
K-562 leukemia = test system: K-562 leukemia
SK-MEL-5 melanoma = test system: SK-MEL-5 melanoma
NCI-H460 lung = test system: NCI-H460 lung
MOLT-4 leukemia = test system: MOLT-4 leukemia
KM12 colon = test system: KM12 colon
RPMI-8226 leukemia = test system: RPMI-8226 leukemia
CAKI-1 renal = test system: CAKI-1 renal
HCT-116 colon = test system: HCT-116 colon
SK-OV-3 ovarian = test system: SK-OV-3 ovarian
SN12C renal = test system: SN12C renal
MALME-3M melanoma = test system: MALME-3M melanoma
CCRF-CEM leukemia = test system: CCRF-CEM leukemia
UACC-257 melanoma = test system: UACC-257 melanoma
SF-295 CNS = test system: SF-295 CNS
SF-268 CNS = test system: SF-268 CNS
RXF 393 renal = test system: RXF 393 renal
PC-3 prostate = test system: PC-3 prostate
OVCAR-3 ovarian = test system: OVCAR-3 ovarian
BT-549 breast = test system: BT-549 breast
MCF7 breast = test system: MCF7 breast
MDA-MB-435 = test system: MDA-MB-435
MDA-N = test system: MDA-N
COLO 205 colon = test system: COLO 205 colon
DU-145 prostate = test system: DU-145 prostate
SK-MEL-2 melanoma = test system: SK-MEL-2 melanoma
SNB-75 CNS = test system: SNB-75 CNS
U251 CNS = test system: U251 CNS
HL-60(TB) leukemia = test system: HL-60(TB) leukemia
A498 renal = test system: A498 renal
LOX IMVI melanoma = test system: LOX IMVI melanoma
HOP-62 NSCLC = test system: HOP-62 NSCLC
SW-620 colon = test system: SW-620 colon
HCT-15 colon = test system: HCT-15 colon
SNB-19 CNS = test system: SNB-19 CNS
M14 melanoma = test system: M14 melanoma

Measured: TGI

CC(=O)OC1COC(n2nc(N)nc2C)C(OC(C)=O)C1OC(C)=O (stereo unspecified)
> 100 µM: all assays above
